In US5211944A, “Proanthocyanidin polymers having antiviral activity and methods of obtaining same” (Shaman Pharmaceuticals, Inc., priority 1991, dated 1993):

Key:
Herpes simplex virus [1] = settings: cited from earlier work
Herpes Simplex virus [2] = settings: HEp-2 cells; Beladi et al.; cited from earlier work
[3] = system: Herpes Simplex Virus Type 2 (HSV-2); experiment: HSV-2 vaginitis in mice, intraperitoneal treatment; type: in vivo, Swiss Webster mice; settings: 30 mg/kg/day i.p.
[4] = Uninfected toxicity controls, i.p. treatment (HSV-2 study); type: in vivo, Swiss Webster mice; settings: 30 mg/kg/day i.p.
Procedure: Six hours after virus infection, intraperitoneal (i.p.) injections were administered using proanthocyanidin polymer A, ganciclovir, or placebo. Treatments were also given i.p. twice daily on days 1 through 7 after virus challenge. The daily dose of each compound was 30 mg/kg/day, with 15 mg/kg given at each injection. Since on day 0 of the infection only one dose was given, the daily dose for that day was 15 mg/kg/day.
(§1) Groups of 5 mice were sham-infected using the process described above for virus infection, except that no virus was present for the final step. These mice were treated the same way and at the same times as above. Mice were checked daily for survival, and weights were recorded before the first (day 0) and after the last (day 8) treatment.

[5] = Uninfected toxicity controls, topical treatment (HSV-2 study); type: in vivo, Swiss Webster mice; settings: 5% topical
Procedure: as §1
The efficacy of proanthocyanidin polymer A is compared with ganciclovir and acyclovir. Both ganciclovir powder and acyclovir cream were obtained commercially. Squibb cream base #8, which served as a vehicle and as the topical placebo control, was also commercially obtained.
The methods of infecting the mice, setting toxicity control and the parameters measured to evaluate the infection were the same as described above for the intraperitoneal tests. Topical treatments on the day of infection were given at +6 hours. They were then given twice daily for 7 more days.

[6] = system: Herpes Simplex Virus Type 2 (HSV-2); experiment: HSV-2 vaginitis in mice, topical treatment; type: in vivo, Swiss Webster mice
Influenza viruses = settings: cited from earlier work
Herpes Simplex virus [7] = settings: Beladi et al., 1977; in vitro; cited from earlier work

## Nc1ncnc2c1ncn2[C@@H]1O[C@H](CO)[C@@H](O)[C@@H]1O [Vidarabine, adenine arabinoside]
Herpes simplex virus [1]
  topical effectiveness: not effective topically against herpes labialis or other skin/genital infections

## O=c1c(O)c(-c2ccc(O)c(O)c2)oc2cc(O)cc(O)c12 [quercetin]
Herpes Simplex virus [2]
  inhibitory effect on virus multiplication: only a slight inhibitory effect on virus multiplication

## Nc1nc(O)c2ncn(COC(CO)CO)c2n1 [Ganciclovir]
[3]; day 3
  Average Lesion Score: 0.1 ± 0.2
[3]; day 4
  Average Lesion Score: 0.2 ± 0.2
[3]; day 5
  Average Lesion Score: 0.2 ± 0.2
[3]; day 6
  Average Lesion Score: 0.2 ± 0.2
[3]; day 7
  Average Lesion Score: 0.2 ± 0.2
[3]; day 8
  Average Lesion Score: 0.3 ± 0.4
[3]; day 9
  Average Lesion Score: 0.4 ± 0.3
[3]; day 10
  Average Lesion Score: 0.5 ± 0.5
[3]; day 12
  Average Lesion Score: 0.9 ± 0.2
[3]; day 13
  Average Lesion Score: 0.6 ± 0.6
[3]; day 14
  Average Lesion Score: 0.6 ± 0.6
[3]; days 3-14
  Average Lesion Score, Grand Avg.: 0.4 ± 0.2
[3]; vaginal swab
  Virus Titer (Day 3): 1.7 ± 1.0 Log10 50% cell culture infectious dose per ml
[3]; virus-infected
  Mean Day to Death: > 21 days
  Survivors (%): 100%
  Survivors/Total: 10/10
[4]
  tolerability in toxicity control mice: gained less weight than placebo controls
[4]; day 8 minus day 0
  Host Wt. Change: +1.0 grams
[4]; uninfected toxicity controls
  Mean Day to Death: > 21 days
  Survivors/Total: 5/5
[4]; mouse, in vivo, ip, uninfected toxicity controls, read-out: Survivors (%)
  survival: 100%

## Nc1nc2c(ncn2COCCO)c(=O)[nH]1 [Acyclovir]
[5]; day 8 minus day 0
  Host Wt. Change: +2.0 grams
[5]; uninfected toxicity controls
  Mean Day to Death: > 21 days
  Survivors/Total: 5/5
[5]; mouse, in vivo, topical or ocular, uninfected toxicity controls, read-out: Survivors (%)
  survival: 100%
Herpes simplex virus [1]
  topical effectiveness: not effective topically when used against recurrent genital infections
[6]; 5% cream
  lesion formation in infected animals: nearly completely prevented lesion formation
[6]; 5% topical, day 3
  Average Lesion Score: 0.2 ± 0.2
[6]; 5% topical, day 4
  Average Lesion Score: 0.1 ± 0.2
[6]; 5% topical, day 5
  Average Lesion Score: 0.0 ± 0.0
[6]; 5% topical, day 6
  Average Lesion Score: 0.0 ± 0.0
[6]; 5% topical, day 7
  Average Lesion Score: 0.0 ± 0.0
[6]; 5% topical, day 8
  Average Lesion Score: 0.1 ± 0.2
[6]; 5% topical, day 9
  Average Lesion Score: 0.0 ± 0.0
[6]; 5% topical, day 10
  Average Lesion Score: 0.0
[6]; 5% topical, day 11
  Average Lesion Score: 0.0 ± 0.0
[6]; 5% topical, day 12
  Average Lesion Score: 0.0 ± 0.0
[6]; 5% topical, day 13
  Average Lesion Score: 0.0 ± 0.0
[6]; 5% topical, day 14
  Average Lesion Score: 0.0 ± 0.0
[6]; 5% topical, day 14 of the infection
  No. of Mice W/O Lesion: 10/10
[6]; 5% topical, vaginal
  Virus Titer (Day 2): 0.6 ± 0.2 Log 10 50% cell culture infectious dose per ml
[6]; 5% topical, virus-infected
  Mean Day to Death: > 21 days
  Survivors (%): 100%
  Survivors/Total: 10/10

## CC(N)C12CC3CC(CC(C3)C1)C2 (racemic) [Rimantidine]
Influenza viruses
  central nervous system side effects: not associated with the central nervous system side-effects
  effect on fever duration and respiratory symptoms, versus amantadine: shows a similar effect

## O=c1cc(-c2ccc(O)cc2)oc2cc(O)cc(O)c12 [Apigenin]
Herpes Simplex virus [7]
  virus-inactivating (viricidal) activity: only a slight effect
